Our source for the mutagenic call values is PubChem BioAssay AID1259407 (Chemical Carcinogenesis Research Information System (CCRIS), 2018).

Activity calls are given as the source filed them. How the calls were made is not given here.

For this data set, the system named is CCRIS mutagenicity, Ames/micronucleus/aberration tests. Kind of data set: CCRIS mutagenicity studies.
Where [1] appears, read: Test System: AMES SALMONELLA TYPHIMURIUM, Strain/Indicator: TA100, Metabolic Activation: NONE, Method: STANDARD PLATE.
[2] abbreviates: Test System: AMES SALMONELLA TYPHIMURIUM, Strain/Indicator: TA98, Metabolic Activation: NONE, Method: STANDARD PLATE.

For the compound `CCC/C=C(/C=O)CC`, the mutagenic call by setting is: (Test System: AMES SALMONELLA TYPHIMURIUM, Strain/Indicator: TA97, Metabolic Activation: HAMSTER, LIVER, S-9, AROCLOR 1254 (10 OR 30%), Method: PREINCUBATION) “inactive; negative”; (Test System: AMES SALMONELLA TYPHIMURIUM, Strain/Indicator: TA97, Metabolic Activation: NONE, Method: PREINCUBATION) “inactive; negative”; (Test System: AMES SALMONELLA TYPHIMURIUM, Strain/Indicator: TA97, Metabolic Activation: RAT, LIVER, S-9, AROCLOR 1254 (10 OR 30%), Method: PREINCUBATION) “inactive; negative”; (Test System: AMES SALMONELLA TYPHIMURIUM, Strain/Indicator: TA98, Metabolic Activation: HAMSTER, LIVER, S-9, AROCLOR 1254 (10 OR 30%), Method: PREINCUBATION) “inactive; negative”; (Test System: AMES SALMONELLA TYPHIMURIUM, Strain/Indicator: TA98, Metabolic Activation: NONE, Method: PREINCUBATION) “inactive; negative”; (Test System: AMES SALMONELLA TYPHIMURIUM, Strain/Indicator: TA98, Metabolic Activation: RAT, LIVER, S-9, AROCLOR 1254 (10 OR 30%), Method: PREINCUBATION) “inactive; negative”. Besides, the mutagenic call reads like this: (Test System: AMES SALMONELLA TYPHIMURIUM, Strain/Indicator: TA100, Metabolic Activation: HAMSTER, LIVER, S-9, AROCLOR 1254 (10 OR 30%), Method: PREINCUBATION) “inactive; negative”; (Test System: AMES SALMONELLA TYPHIMURIUM, Strain/Indicator: TA100, Metabolic Activation: NONE, Method: PREINCUBATION) “inactive; negative”; (Test System: AMES SALMONELLA TYPHIMURIUM, Strain/Indicator: TA100, Metabolic Activation: RAT, LIVER, S-9, AROCLOR 1254 (10 OR 30%), Method: PREINCUBATION) “inactive; negative”; (Test System: AMES SALMONELLA TYPHIMURIUM, Strain/Indicator: TA1535, Metabolic Activation: HAMSTER, LIVER, S-9, AROCLOR 1254 (10 OR 30%), Method: PREINCUBATION) “inactive; negative”; (Test System: AMES SALMONELLA TYPHIMURIUM, Strain/Indicator: TA1535, Metabolic Activation: NONE, Method: PREINCUBATION) “inactive; negative”; (Test System: AMES SALMONELLA TYPHIMURIUM, Strain/Indicator: TA1535, Metabolic Activation: RAT, LIVER, S-9, AROCLOR 1254 (10 OR 30%), Method: PREINCUBATION) “inactive; negative”.
In the case of `CC(Br)C(=O)NCc1ccccc1` (stereo unspecified), the mutagenic call is, setting by setting: (Test System: AMES SALMONELLA TYPHIMURIUM, Strain/Indicator: TA100, Metabolic Activation: MOUSE, LIVER, S-9, AROCLOR 1254, Method: STANDARD PLATE) “active; positive”; under setting [1], “active; positive”.
For the compound `CCCCN=[N+]=[N-]`, the mutagenic call (Test System: Ames Salmonella typhimurium, Strain/Indicator: TA100, Metabolic Activation: None, Method: Preincubation) is “inactive; negative” and the mutagenic call (Test System: Ames Salmonella typhimurium, Strain/Indicator: TA100, Metabolic Activation: Rat, Liver, S-9, Aroclor 1254, Method: Preincubation) is “active; positive”.
As for `CCC1C(=O)O[C@@H]2CCN(C)C/C=C(/COC(=O)[C@](C)(O)[C@H](C)[C@@H]1O)C2=O` (stereo partly specified), for the setting “Test System: UDS RAT HEPATOCYTES, Strain/Indicator: THY INCORP, Metabolic Activation: NONE, Method: AUTORADIOGRAPHY”, the mutagenic call was “active; positive”.
As to `Nc1ccc2nc3ccccn3c2n1`, the mutagenic call (Test System: AMES SALMONELLA TYPHIMURIUM, Strain/Indicator: TA97, Metabolic Activation: NONE, Method: STANDARD PLATE) is “inactive; negative”; the mutagenic call (Test System: AMES SALMONELLA TYPHIMURIUM, Strain/Indicator: TA97, Metabolic Activation: RAT, LIVER, S-9, AROCLOR 1254, Method: STANDARD PLATE) is “active; positive”; the mutagenic call (Test System: AMES SALMONELLA TYPHIMURIUM, Strain/Indicator: TA98, Metabolic Activation: MONKEY, LIVER, S-9, Method: PREINCUBATION) was “active; positive”; the mutagenic call (Test System: AMES SALMONELLA TYPHIMURIUM, Strain/Indicator: TA98, Metabolic Activation: MOUSE, LIVER, MICROSOMES, TCDD, Method: STANDARD PLATE) was “active; positive”; the mutagenic call (Test System: AMES SALMONELLA TYPHIMURIUM, Strain/Indicator: TA98, Metabolic Activation: MOUSE, LIVER, MICROSOMES, Method: STANDARD PLATE) is “inactive; negative”; the mutagenic call under setting [2] was “inactive; negative”. Further, the mutagenic call was “inactive; negative” (Test System: AMES SALMONELLA TYPHIMURIUM, Strain/Indicator: TA98, Metabolic Activation: RAT, LIVER, CYTOSOL, AROCLOR 1254, Method: STANDARD PLATE); “inactive; negative” (Test System: AMES SALMONELLA TYPHIMURIUM, Strain/Indicator: TA98, Metabolic Activation: RAT, LIVER, MICROSOMES, AROCLOR 1254, Method: STANDARD PLATE); “active; positive” (Test System: AMES SALMONELLA TYPHIMURIUM, Strain/Indicator: TA98, Metabolic Activation: RAT, LIVER, S-9, AROCLOR 1254, Method: PREINCUBATION); “active; positive” (Test System: AMES SALMONELLA TYPHIMURIUM, Strain/Indicator: TA98, Metabolic Activation: RAT, LIVER, S-9, AROCLOR 1254, Method: STANDARD PLATE); “inactive; negative” under setting [1]; “active; positive” (Test System: AMES SALMONELLA TYPHIMURIUM, Strain/Indicator: TA100, Metabolic Activation: RAT, LIVER, S-9, AROCLOR 1254, Method: PREINCUBATION). In addition, the mutagenic call is “active; positive” (Test System: AMES SALMONELLA TYPHIMURIUM, Strain/Indicator: TA100, Metabolic Activation: RAT, LIVER, S-9, AROCLOR 1254, Method: STANDARD PLATE); “active; positive” (Test System: AMES SALMONELLA TYPHIMURIUM, Strain/Indicator: TA100, Metabolic Activation: RAT, LIVER, S-9, N-BENZYLIMIDAZOLE, Method: PREINCUBATION); “active; positive” (Test System: AMES SALMONELLA TYPHIMURIUM, Strain/Indicator: YG1019, Metabolic Activation: RAT LIVER S-9, AROCLOR, Method: PREINCUBATION).
Regarding `C1=Cc2c3ccccc3cc3cc4ccccc4c1c23`, the mutagenic call is, setting by setting: under setting [2], “active; positive”; (Test System: AMES SALMONELLA TYPHIMURIUM, Strain/Indicator: TA98, Metabolic Activation: RAT, LIVER, S-9, AROCLOR 1254 (0.127 OR 1.27 MG S-9 PROTEIN), Method: STANDARD PLATE) “active; positive”.
Turning to `C[C@@]12CCc3occc3[C@H]1CC[C@@]13C[C@@H](CC[C@H]12)[C@@](O)(CO)C3`, the mutagenic call reads like this: (Test System: AMES SALMONELLA TYPHIMURIUM, Strain/Indicator: TM677, Metabolic Activation: NONE, Method: PREINCUBATION) “inactive; negative”; (Test System: AMES SALMONELLA TYPHIMURIUM, Strain/Indicator: TM677, Metabolic Activation: RAT, LIVER, S-9, AROCLOR 1254, Method: PREINCUBATION) “inactive; negative”.
`Clc1ccc(-c2ccccc2)cc1`: the mutagenic call is “inactive; negative” (End Point: In vitro micronucleus, Test System: Chinese hamster lung fibroblasts (V79 cells), Metabolic Activation: None); “inactive; negative (2-fold increase in mutant frequency for 4-chlorobiphenyl and its metab” (End Point: In vivo mutagenicity, Test System: Lung, Species: Rat, Strain/Sex: Big Blue/male, Route: Intraperitoneal); “inactive; negative. study examines mutagenicity of metabolites synthesized in lab and iden” (Test System: Chinese hamster lung fibroblasts, Strain/Indicator: V79 (HPRT)/6-thioguanine, Metabolic Activation: None, Method: Standard plate).
For the compound `COc1ccc(-c2oc3ccccc3c(=O)c2[N+](=O)[O-])cc1[N+](=O)[O-]`, the mutagenic call reads like this: (Test System: AMES SALMONELLA TYPHIMURIUM, Strain/Indicator: TA100, Metabolic Activation: RAT LIVER S-9, AROCLOR 1254, Method: STANDARD PLATE) “active; positive”; (Test System: AMES SALMONELLA TYPHIMURIUM, Strain/Indicator: YG1042, Metabolic Activation: RAT LIVER S-9, AROCLOR 1254, Method: STANDARD PLATE) “active; positive”.
